Laboratory results: patent US10874108B2, “Anti-microbial compositions” (5D HEALTH PROTECTION GROUP LTD, priority 2016, dated 2020)
Several values for one entry are separate records, joined by “and”; a condition that tells them apart may be missing. Equal entries are not always repeated.

Assays:
[1] = Displacement of metals from EDTA complexes by physiological saline; type: physicochemical
Procedure: Adding saline to the suspension of Ag4(EDTA), the suspension quickly precipitated a solid (AgCl). The precipitate was filtered off, washed with deionized water 4 times; and then dried in a vacuum oven at 50° C. in a dark flask to avoid exposure to direct light.
The displacement experiment described above was repeated for compounds 1-4 to provide the percent of the displacement of silver, copper, zinc from the EDTA complexes by physiological saline.

S. aureus biofilms = test: CDC bioreactor biofilm LR/kill, EDTA compounds at 100 ppm silver; type: cell-based; conditions: 100 ppm of silver, exposed 24 hours
Procedure: (§1) Microbial cultures were exposed to compounds for 24 hours. Compounds were diluted according to 100 ppm of silver. Biofilms were formed using the CDC bioreactor. Samples were performed in triplicate.

P. aeruginosa biofilms [2] = test: as above; type: cell-based; conditions: 100 ppm of silver, exposed 24 hours
Procedure: as §1

[3] = Elution from collagen films; type: physicochemical; conditions: for Elution in saline (ppm) EDTA / Elution in saline (ppm) Zinc / Elution in water (ppm) EDTA / Elution in saline (ppm) Silver / Elution in water (ppm) Silver / Elution in water (ppm) Zinc: collagen film; for Overall zinc eluted out from collagen films: 5 days; for In total EDTA eluted out from collagen films: over 5 days; for In total silver eluted out from collagen films: over the 5 days
Procedure: The EDTA compounds 1-4 were added to collagen films and then investigated for elution of these complexes. The collagen film was prepared from a solution of oxidized bovine atelocollagen type I, glycerol and EDTA compounds 1-4. 1.8 ml 10% glycerol solution was added into 20 ml oxidized bovine atelocollagen type I solution. 5 ml EDTA complex were added into the solution with vigorous stirring, and the mixture was adjusted to pH=7.0 by dropwise addition of 5% NaOH. The final solution was adjusted to 30 ml by ultrapure water and was cast into PVC mould. The solution was dried in a fume hood overnight. All the collagen films, impregnated with the EDTA complexes were immersed in water, saline or simulated wound fluid.

cells = test: Direct cytotoxicity, Neutral Red Uptake assay
P. aeruginosa biofilms [4] = test: MBEC plate 48-hour biofilm, liquid EDTA-Ag2-Zn compound; type: cell-based
Description: Biofilms were formed using the MBEC plate method. Log reduction (LR) values are expressed with standard error. N.D (not determined) is stated when no colonies were detected upon enumeration.

[5] = day 1, listed as EDTA compound 4

**Q.** Which “Displacement (%) Silver” value [1] does the source give for `O=C([O-])CN(CCN(CC(=O)[O-])CC(=O)[O-])CC(=O)[O-].[Ag+].[Ag+].[Zn+2]` [Compound 4, Ag2ZnEDTA] here?
**A.** 80.77 ± 6.45%

**Q.** And the “Displacement (%) Zinc” value [1]?
**A.** 38.86 ± 9.01 %

**Q.** And the “Kill %” value (S. aureus biofilms)?
**A.** 99.98%

**Q.** What about the LR (S. aureus biofilms) of the same molecule?
**A.** 3.73 ± 0.18

**Q.** And the “Kill %” value (P. aeruginosa biofilms [2])?
**A.** 99.95%

**Q.** What about the LR (P. aeruginosa biofilms [2]) of the same molecule?
**A.** 3.34 ± 0.11

**Q.** And the “Elution in saline (ppm) EDTA” value ([3]; day 1)?
**A.** 9.75 ± 1.31 ppm

**Q.** And the “Elution in saline (ppm) Zinc” value ([3]; day 1)?
**A.** 5.65 ± 0.06 ppm

**Q.** And the “Elution in water (ppm) EDTA” value ([3]; day 1)?
**A.** 9.25 ± 0.90 ppm

**Q.** And the “Elution in saline (ppm) Silver” value [3, 5]?
**A.** 20.34±1.42 ppm

**Q.** What about the “Elution in water (ppm) Silver” value [3, 5] of the same molecule?
**A.** 19.08±0.92 ppm

**Q.** And the “Elution in water (ppm) Zinc” value [3, 5]?
**A.** 9.86±0.39 ppm

**Q.** And the “Elution in saline (ppm) EDTA” value ([3]; day 2)?
**A.** 0.47 ± 0.35 ppm

**Q.** And the “Elution in saline (ppm) Silver” value ([3]; day 2)?
**A.** 14.49 ± 2.63 ppm

**Q.** What about the “Elution in saline (ppm) Zinc” value ([3]; day 2) of the same molecule?
**A.** 6.26 ± 0.67 ppm

**Q.** What about the “Elution in water (ppm) EDTA” value ([3]; day 2) of the same molecule?
**A.** 0.96 ± 0.64 ppm

**Q.** And the “Elution in water (ppm) Silver” value ([3]; day 2)?
**A.** 12.61 ± 1.04 ppm

**Q.** And the “Elution in water (ppm) Zinc” value ([3]; day 2)?
**A.** 9.60 ± 0.33 ppm

**Q.** And the “Elution in saline (ppm) EDTA” value ([3]; day 3)?
**A.** 0.40 ± 0.08 ppm

**Q.** What about the “Elution in saline (ppm) Silver” value ([3]; day 3) of the same molecule?
**A.** 15.23 ± 2.41 ppm

**Q.** And the “Elution in saline (ppm) Zinc” value ([3]; day 3)?
**A.** 6.44 ± 0.60 ppm

**Q.** And the “Elution in water (ppm) EDTA” value ([3]; day 3)?
**A.** 1.53 ± 1.08 ppm

**Q.** What about the “Elution in water (ppm) Silver” value ([3]; day 3) of the same molecule?
**A.** 10.64 ± 1.19 ppm

**Q.** What about the “Elution in water (ppm) Zinc” value ([3]; day 3) of the same molecule?
**A.** 8.08 ± 0.70 ppm

**Q.** What about the “Elution in saline (ppm) EDTA” value ([3]; day 4) of the same molecule?
**A.** −0.13 ± 0.90 ppm

**Q.** And the “Elution in saline (ppm) Silver” value ([3]; day 4)?
**A.** 12.93 ± 2.10 ppm

**Q.** What about the “Elution in saline (ppm) Zinc” value ([3]; day 4) of the same molecule?
**A.** 5.58 ± 0.33 ppm

**Q.** And the “Elution in water (ppm) EDTA” value ([3]; day 4)?
**A.** 0.24 ± 0.28 ppm

**Q.** What about the “Elution in water (ppm) Silver” value ([3]; day 4) of the same molecule?
**A.** 9.56 ± 0.79 ppm

**Q.** What about the “Elution in water (ppm) Zinc” value ([3]; day 4) of the same molecule?
**A.** 6.24 ± 0.40 ppm

**Q.** And the “Elution in saline (ppm) EDTA” value ([3]; day 5)?
**A.** −0.07 ± 0.93 ppm

**Q.** What about the “Elution in saline (ppm) Silver” value ([3]; day 5) of the same molecule?
**A.** 13.30 ± 2.14 ppm

**Q.** And the “Elution in saline (ppm) Zinc” value ([3]; day 5)?
**A.** 5.18 ± 0.15 ppm

**Q.** What about the “Elution in water (ppm) EDTA” value ([3]; day 5) of the same molecule?
**A.** 1.17 ± 1.31 ppm

**Q.** What about the “Elution in water (ppm) Silver” value ([3]; day 5) of the same molecule?
**A.** 10.35 ± 0.73 ppm

**Q.** What about the “Elution in water (ppm) Zinc” value ([3]; day 5) of the same molecule?
**A.** 6.53 ± 0.23 ppm

**Q.** What about the “Overall zinc eluted out from collagen films” value ([3]; in saline) of the same molecule?
**A.** 27.36%

**Q.** What about the “In total EDTA eluted out from collagen films” value ([3]; in saline) of the same molecule?
**A.** 13.44%

**Q.** And the “In total silver eluted out from collagen films” value ([3]; in saline)?
**A.** 66.22%

**Q.** And the “Overall zinc eluted out from collagen films” value ([3]; in water)?
**A.** 37.89%

**Q.** What about the “In total EDTA eluted out from collagen films” value ([3]; in water) of the same molecule?
**A.** 16.95%

**Q.** And the “In total silver eluted out from collagen films” value ([3]; in water)?
**A.** 54.03%

**Q.** And the Interpretation (cells; 25 ppm)?
**A.** Cytotoxic (if the percentage viability is less than 70% of the untreated control, then the substance is considered cytotoxic)

**Q.** And the “Percentage of Control/Percentage Viability (%)” value (cells; 25 ppm)?
**A.** 62.67 ± 20.39%

**Q.** And the Interpretation (cells; 50 ppm)?
**A.** Non cytotoxic (if the percentage viability is less than 70% of the untreated control, then the substance is considered cytotoxic)

**Q.** And the “Percentage of Control/Percentage Viability (%)” value (cells; 50 ppm)?
**A.** 72.93% and 72.93 ± 12.90%

**Q.** And the Interpretation (cells; 100 ppm)?
**A.** Cytotoxic (if the percentage viability is less than 70% of the untreated control, then the substance is considered cytotoxic)

**Q.** And the “Percentage of Control/Percentage Viability (%)” value (cells; 100 ppm)?
**A.** 56.41 ± 1.83%

**Q.** And the “% Kill” value (P. aeruginosa biofilms [4]; 62.5 ppm, treatment 1 hours)?
**A.** 100%

**Q.** What about the “% Kill” value (P. aeruginosa biofilms [4]; 62.5 ppm, treatment 24 hours) of the same molecule?
**A.** 100%

**Q.** And the “% Kill” value (P. aeruginosa biofilms [4]; 125 ppm, treatment 1 hours)?
**A.** 100%
